Here are results for 5 molecules from patent EP2497775A1, “Ferrocene-based compounds and their use as ROS regulating prodrugs” (Ruprecht-Karls-Universität Heidelberg, priority 2011, dated 2012).

Like-named read-outs stand apart in the source and are kept apart here.

One data set concerns HL60-cells. The experiment in a line: Cell permeability of the prodrugs (boron/curcumin assay). The following applies: 100 µM, 1 h, boron relative to comparative example C.-E. It is filed as cell-based, Human. The procedure: Assay for determination of cell Permeability of the prodrugs (Table 2) (according to the protocol described in J.Plant Nutr. Soil Sci. 1999,162,15-18) HL60-cells grown in RPMI 1640 medium supplemented with 10 % FCS, 1 % glutamine and 1% penicillin / streptomycin were centrifuged and the medium was replaced with RPMI 1640 medium (5 % FCS, 1 % L-glutamine, 1% penicillin) to obtain suspensions containing 10^6 cells per mL. Solutions of prodrugs (5 µL, solvent: DMF containing 2 % water and 1 % sodium ascorbate) were added to the suspensions (500 µL) and incubated for 1 h. The final concentration of the prodrugs in the suspensions was 100 µM. Then the cells were washed 3 times with PBS buffer (3 x 500 µL), treated with concentrated H2O2 solution (200 µL, 1 M) for 30 min and all volatiles were removed by lyophilization. Dry, lysed cells were washed with water (200 µL) and aqueous solution obtained was acidified with HCl (400 µL, 0.1 M). Then this solution was extracted with ethyl-1,3-hexandiol (100 µL, 10 % in CHCl3, v/v) and a portion of the organic phase obtained (40 µL) was mixed with H2SO4 / CH3CO2H (400 µL, 1/1, v/v). Curcumin solution in methylisobutylketone (500 µL, 2 mg in 1 mL of the solvent) was added and allowed to react for 24 h. The reaction was quenched by addition of water (1 mL). […] The value A(550 nm)-A(780 nm) was proportional to concentration of boron in the mixture. Amount of boron released from comparative example C.-E. was taken as a reference. All other values were determined relative to this reference. These values are compared in Table 2 with TLC retention factors, which are proportional to hydrophobicity of the prodrugs.

A short description of data set [1]: TLC retention factor as measure of hydrophobicity. It is filed as physicochemical. The following applies: support - SiO2, eluent - hexane / ethyl acetate (3/1, v/v); proportional to hydrophobicity.
Data set [2] can be described thus: Generation of ROS in vitro (DCFH fluorescence, cell-free). The class given is biochemical. Conditions: iron complex 100 µM, H2O2 (10 mM), glutathione (5 mM), pH 7.5, relative to FeSO4. Here is the method: Monitoring generation of ROS in the presence of the prodrugs A-E, Comparative Example and control compounds (Table 1):
2',7'-Dichlorfluorescin diacetate (DCFH-DA, 4.9 mg) was dissolved in DMF (100 µL) and mixed with aqueous NaOH (0.1 M, 900 µL). The resulting mixture was incubated for 30 min at 22°C in the dark to obtain the stock solution of 2',7'-dichlorfluorescin (DCFH, 10 mM). Next, the solution (1 mL) containing DCFH (10 µM), MOPS buffer (100 mM, pH 7.5), EDTA (10 mM), glutathione (5 mM) and H2O2 (10 mM) was prepared. Monitoring of fluorescence (λex= 501 nm, λem= 531 nm) of this solution was started. After 3 min, an iron complex (100 µM: ferrocene prodrugs A-E, Comparative Example, negative or positive controls 1 a, P) was added and the fluorescence monitoring was continued. Efficacy of ROS generation was then determined 17 and 37 min after the addition of the iron complex by using the following formulae: efficacy = (F(prodrug) - F0) / (F(FeSO4) - F0), where F(prodrug) is fluorescence of a mixture containing prodrug and treated as described above, F(FeSO4) is fluorescence of a mixture containing FeSO4; F0 is fluorescence of a mixture containing no iron complex.

Another data set concerns HL-60 cells. The experiment in a line: Generation of ROS in cells (DCFH-DA, flow cytometry). The class given is cell-based, Human. The following applies: 50 µM, 4 h. Here is the method:
Generation of ROS in HL-60 cells in the presence the prodrugs, comparative example C.-E. and controls (Table 3)
The probe of HL-60 cells was taken from the cultivation medium (RPMI 1640 supplemented with 10 % FCS, 1 % L-glutamine and 1% penicillin). The medium was replaced for PBS-buffer to obtain the cell suspension with 10^6 cells per mL. DCFH-DA solution (1 µL, 10 mM in DMSO) was added to the suspension (1 mL) and incubated in the dark chamber filled with CO2 (5 %) at 37 °C for 5 min. Then, the cells were washed with PBS and RPMI 1640 (5 % FCS, 1 % L-glutamine, 1% penicillin) medium and an iron complex (10 µL of stock solutions, solvent: DMF containing 2 % water and 1 % sodium ascorbate, final concentration of the complex - 50 µM) was added. After 4 h of the incubation the fluorescence of live cells (λex = 488 nm, λem = 530 nm) in the suspensions was determined by using the flow cytometer. Efficacy of ROS generation was determined using the following formulae: efficacy = (F(prodrug) - F0) / (F(FeSO4) - F0), where F(prodrug) is mean fluorescence intensity of cells incubated with a prodrug and treated as described above, F(FeSO4) is mean fluorescence intensity of cells incubated with FeSO4; F0 is mean fluorescence intensity of cells, which were not treated with any iron complex.

Data set [3] in a line: Release of iron ions from the prodrugs in the presence of hydrogen peroxide (2,2'-bipyridine absorbance). Conditions: H2O2 (1 mM), 22°C, 100 min, MOPS buffer pH 7.5; relative to FeSO4 (100 µM). It is filed as physicochemical. The procedure:
Monitoring release of iron ions from the prodrugs A-E, Comparative Example and control compounds in the presence of hydrogen peroxide (Table 1):
Solution of a ferrocene complex (10 µL, 10 mM in DMF containing 2% water and 1% sodium ascorbate) was diluted with MOPS buffer (990 µL, 100 mM, pH 7.5). Such probes were incubated with H2O2 (1 mM) at 22°C for 100 min. Then the reaction was quenched by adding sodium dithionite (20 µL, 1 M in water) that converts Fe^3+ into Fe^2+. Finally, 2,2'-bipyridine solution (3 µL, 100 mM in DMF) was added to form dark red [Fe(2,2'-bipyridine)3]^2+ complex (λmax= 519 nm). FeSO4 sulfate (100 µM) was used as a positive control to determine the absorbance intensity when the ferrocene complexes were completely converted by H2O2 to free Fe^2+. […] The data are provided in Table 2 and were determined by using the following formulae: iron release efficacy = (A519nm(prodrug) - A519nm(buffer)) / (A519nm(FeSO4) - A519nm(buffer)), where A519nm(prodrug) is absorbance at 519 nm of a prodrug treated with H2O2 and 2,2'-bipyridine as described above, A519nm(FeSO4) is absorbance at 519 nm of FeSO4 treated in a similar way as a prodrug and A519nm(buffer) is absorbance at 519 nm of the buffer only treated in a similar way as a prodrug.

The test system of data set [4] is Human promyelocytic leukemia cells (HL-60). The experiment in a line: Viability of HL-60 cells (propidium iodide, flow cytometry). The class given is cell-based. The following applies: read-out: Toxicity of the complexes: IC50. The procedure: Determination of viability of HL-60 cells (Table 4)
HL-60 cells grown in RPMI 1640 medium supplemented with 10 % FCS, 1 % L-glutamine and 1% penicillin were centrifuged, the medium was replaced with RPMI 1640 medium (5 % FCS, 1 % L-glutamine, 1% penicillin) to obtain suspensions containing 10^6 cells per mL. Stock solutions of prodrugs of different concentrations (5 µL, solvent: DMF containing 2 % water and 1 % sodium ascorbate) were added to the cellular suspensions (500 µL) and incubated for specific periods of time. Four experiments were conducted for each concentration of the prodrug. At the end of the incubation period propidium iodide (PI, 1 µL, 1.5 mM in water) was added to label leaky cells and in 5 min the suspension of the cells was analyzed by using flow cytometry.
Background: A flow cytometer gives signals particle by particle.

In a further data set the test system is Fibroplasts. As to the kind of experiment: Viability of fibroplasts (MTT). The class given is cell-based. Conditions: Fibroplasts (normal cells); read-out: Toxicity of the complexes: IC50. The procedure: Determination of viability of fibroplasts (Table 4)
Cells were grown either in DMEM medium (Dulbecco's Modified Eagle's Medium) supplemented with 10 % FCS, 1 % L-glutamine and 1% streptomycin/ penicillin up to 80-90 % confluence. Then the cells were trypsinated, washed, re-suspended in the same medium and spread in wells of a 96-wells microtiter plate (-25.000 cells per well, per 100 µL) and left standing at 37 °C in the chamber filled with CO2 (5 %) for 5 h. Stock solutions of prodrugs of different concentrations (1 µL, solvent: DMF / water (1/3, v/v) containing 1 % sodium ascorbate) were added to the wells and incubated for specific periods of time. Four experiments were conducted for each concentration of the prodrug.

The subject of another data set is 8226 (Human myeloma). The following applies: ref. [1]; cited from earlier work.
Another data set relates to WiDr (Human, colon). The following applies: ref. [1]; cited from earlier work.
For another data set, the system named is (Human, breast). The following applies: ref. [1]; cited from earlier work.
Data set [5] deals with different neuroblastoma cell lines. Conditions: ref. [2]; cited from earlier work.
Data set [6] has as its system MES-SA human uterine cancer. The following applies: ref. [6]; cited from earlier work.
For a further data set, the system named is HT29 (Human, colon). Conditions: ref. [4]; cited from earlier work.
For a further data set, the system named is SW480 (Human, colon). The following applies: ref. [3]; cited from earlier work.
Another data set deals with Human multiple myeloma. The following applies: ref. [7]; cited from earlier work.
The subject of a further data set is HCT8 (colon). The following applies: ref. [8]; cited from earlier work.
The next data set has as its system HL-60 (leukemia). Conditions: ref. [8]; cited from earlier work.

Turning to “4-((N-benzyl-N-Ferrocenylaminocarbonyl)oxymethyl)-2-phenylboronic acid pinacol ester [Prodrug B]”, the “Relative efficiency of cell loading” value in the data set with HL60-cells is 1.8. Besides, in [1], the “TLC-retention factor (Rf)” value was 0.46. Also, the “Efficacy of ROS generation in vitro” value in [2] (17 min incubation) was 0.24; in [2] (37 min incubation), 0.53. Further, in the data set on HL-60 cells, the “Efficacy of ROS release in cells” value is 0.09 ± 0.02. In addition, in [3], the “Efficacy of iron release in vitro” value amounted to 0.09. The IC50 was 12 to 26 µM in data set [4] (listed as prodrug B), 12 ± 2 µM in [4] and greater than 50 µM in the data set on Fibroplasts.
In the case of `CCCCS(=N)(=O)CCC(N)C(=O)O` (stereo not shown) [Buthionine sulfoximine (BSO), Buthionine sulfoximine], the 50% inhibitory concentration (IC50) was 2 µM in the data set with 8226 (Human myeloma); 450 µM with WiDr (Human, colon); 850 µM in the data set with (Human, breast); 0.3 to 311 µM in data set [5].
As to `CC(=O)[O-].CC(=O)[O-].CCc1c(CC)c2cc3nc(cnc4cc(OCCOCCOCCOC)c(OCCOCCOCCOC)cc4ncc4nc(cc1[n-]2)C(CCCO)=C4C)C(C)=C3CCCO.[Gd+3]` [Motexafin gadolinium], the half-inhibitory concentration (IC50) in data set [6] was roughly 12 µM.
For `CC(=O)Oc1ccccc1C(=O)Oc1cccc(CO[N+](=O)[O-])c1` [NO-ASA], the concentration for half-maximal inhibition (IC50) was 3 to 7 µM in the data set with HT29 (Human, colon) and 85 µM in the data set with SW480 (Human, colon).
With `CC1(C)CCC2=C(O1)c1ccccc1C(=O)C2=O` [β-Lapachone], the IC50 is 1 µM in the data set with Human multiple myeloma, 0.83 µM in the data set with HCT8 (colon) and 1.65 µM with HL-60 (leukemia).

As usually defined, the IC50 is the concentration needed to halve the response being measured.
